Test results taken from patent US9605004B2, “Chemical compounds” (SYNGENTA LIMITED, priority 2013, dated 2017).

Experiments:
[1] = test system: a variety of test species; test: Pre-emergence herbicidal activity (Example 8a, Table 2); format: in vivo; set-up: key: 0 = no damage to plant, 5 = total damage to plant; conditions: application pre-emergence, rate 1000 g/ha, evaluated after 13 days
Procedure, shortened: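 Sow in pots of standard soil; after one day under glasshouse conditions, spray compound (acetone/water 50:50 formulation, 0.5% Tween 20, diluted in water). Grow on at 24/16 °C, 14 h light, 65% humidity with twice-daily watering. Assess at 13 days, 0–5 damage scale.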

[2] = test system: a variety of test species; test: Post-emergence herbicidal activity (Example 8b, Table 3); format: in vivo; conditions: application post-emergence, rate 1000 g/ha, evaluated after 13 days, scale 0-5
Procedure, shortened: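 Damage was rated 0-5 (5 = total) 13 days after a post-emergence spray of acetone/water (50:50) plus 0.5% Tween 20 formulation. Plants were sprayed at 8 days' growth and kept at 24/16° C, 14 h light, 65% humidity, watered twice daily.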

COC1=C(OC)C(O)N(c2cc3n(n2)CCCC3(C)C)C1=O (stereo not drawn) [Compound W2]
Pre-emergence herbicidal activity, damage score ABUTH ([1]; ABUTH): 5
Pre-emergence herbicidal activity, damage score ALOMY ([1]; ALOMY): 4
Pre-emergence herbicidal activity, damage score AMARE ([1]; AMARE): 5
Pre-emergence herbicidal activity, damage score ECHCG ([1]; ECHCG): 4
Pre-emergence herbicidal activity, damage score SETFA ([1]; SETFA): 5
Pre-emergence herbicidal activity, damage score ZEAMX ([1]; ZEAMX): 4
Herbicidal damage score, ABUTH ([2]; Abutilon theophrasti): 5
Herbicidal damage score, ALOMY ([2]; Alopecurus myosuroides): 5
Herbicidal damage score, AMARE ([2]; Amaranthus retroflexus): 5
Herbicidal damage score, ECHCG ([2]; Echinochloa crus-galli): 5
Herbicidal damage score, SETFA ([2]; Setaria faberi): 5
Herbicidal damage score, ZEAMX ([2]; Zea mays): 5
